From patent publication US20080312287A1, “Compound and Methods For the Treatment of Cancer and Malaria” (University of Washington, priority 2005, published 2008)
Read-outs that look alike come from different tables or passages of the source. Marks after values point to notes of the source that are not given here.

Key:
Rat FTase = Rat FTase (Rattus norvegicus, UniProt Q02293+Q04631); assay: Rat farnesyltransferase IC50 determination; assay type: biochemical; conditions: concentration decreasing transferase activity twofold
[1] = Liver microsome metabolism (mouse); conditions: female
Protocol: (§4) Microsome metabolism. Liver microsome metabolism assays were performed with female pooled microsomes from BD Biosciences (20 mg/mL). Reaction wells containing: phosphate buffer (232 μL, 0.6 M), MgCl2 (12.0 μL, 0.1 M), EDTA (0.8 μL, 0.5 M), 10x NADPH regenerating system (40.0 μL), Glucoide-6-phosphate deghydrogenase (0.8 μL, 500 U/mL), milliq water (267.8 μL), and liver microsomes (10.0 μL, 20 mg/mL) were heated at 37° C. for 10 mins. To each reaction well was added inhibitor (200 μM, 2.0 μL) in DMSO. Reaction vessels were quenched with acetonitrile (75 μL) and internal standard at designated time points, and the sample immediately frozen (−20° C.). Metabolites and unreacted inhibitor were quantified by mass spectral analysis.

P. falciparum 3D7 = assay: P. falciparum ED50 determination, [3H]-hypoxanthine incorporation, strain 3D7; assay type: cell-based, Plasmodium falciparum; conditions: concentration decreasing hypoxanthine incorporation into parasites twofold, read-out: ED50 3D7
From the text: (§1) Plasmodium strains. The P. falciparum strains used in this study were 3D7 (Netherlands, sensitive) provided by Dr. Pradipsinh Rathod from the University of Washington and K1 (Thailand, ChQ-R, Pyr-R) obtained from the MR4Unit of the American Type Culture Collection (ATCC, Manassas, Va.).
(§2) P. falciparum culture. Strains of P. falciparum were sustained in vitro based on experimental techniques as described by Trager and Jensen.^26 Cultures were maintained in RPMI-1640 (Sigma, St. Louis, […].) with 2 mM L-glutamine, 25 mM HEPES, 33 mM NaHCO3, 20 μg/ml gentamicin sulfate and 20% (v/v) heat-inactivated human plasma type A+ (R^P-20P). Type A+ erythrocytes were obtained from lab donors, washed three times with RPMI, re-suspended in 50% RPMI, and stored at 4° C. Parasites were grown in 10 mL of a 2% hematocrit/RP-20P (v/v) in 50-mL flasks under a 5% CO2, 5% O2, and 90% N2 atmosphere.
(§3) P. falciparum ED50 determination. One […]L of PFTI dissolved in DMSO was added to each well of a 96-well plate followed by the addition of 200 μL of P. falciparum culture at parasitemia and hematocrit of 0.5%. Plates were flushed with 5% CO2, 5% O2, and 90% N2 then incubated at 37° C. for 48 hr. [8-^3H]-hypoxanthine (0.3 μCi, 20 Ci/mmol, American Radiolabeled Chemicals) in 30 μL RP-20P was added to cultures and incubated for an additional 24 hours. Cells were harvested onto filter mats by a Multiharvester (Skatron, Sunnyvale, Calif.) and the radioactivity incorporated into the parasites was counted on a β-scintillation counter. The background level detected with uninfected erythrocytes was subtracted from the data. The ^3H-incorporation into infected RBCs with 1 μL DMSO vehicle alone represents 100% malaria growth. ED50 values were determined by linear regression analysis of the plots of ^3H-hypoxanthine incorporation versus concentration of compound.

PfPFT = molecular target: T1, PfPFT (Plasmodium falciparum, UniProt Q8I503+Q8IHP6); assay: PfPFT inhibition, scintillation proximity assay with partially purified PfPFT; assay type: biochemical; conditions: for Selectivity: ratio of rat to Plasmodium PFT activity; for inhibition at 0.005 µM: read-out: % Inhibition of PfPFT at 5 nM, inhibitor at 5 nM; for inhibition at 0.05 µM: read-out: % Inhibition of PfPFT at 50 nM, inhibitor at 50 nM; for IC50: concentration decreasing transferase activity twofold
T1 sequence (Q8I503 1-521): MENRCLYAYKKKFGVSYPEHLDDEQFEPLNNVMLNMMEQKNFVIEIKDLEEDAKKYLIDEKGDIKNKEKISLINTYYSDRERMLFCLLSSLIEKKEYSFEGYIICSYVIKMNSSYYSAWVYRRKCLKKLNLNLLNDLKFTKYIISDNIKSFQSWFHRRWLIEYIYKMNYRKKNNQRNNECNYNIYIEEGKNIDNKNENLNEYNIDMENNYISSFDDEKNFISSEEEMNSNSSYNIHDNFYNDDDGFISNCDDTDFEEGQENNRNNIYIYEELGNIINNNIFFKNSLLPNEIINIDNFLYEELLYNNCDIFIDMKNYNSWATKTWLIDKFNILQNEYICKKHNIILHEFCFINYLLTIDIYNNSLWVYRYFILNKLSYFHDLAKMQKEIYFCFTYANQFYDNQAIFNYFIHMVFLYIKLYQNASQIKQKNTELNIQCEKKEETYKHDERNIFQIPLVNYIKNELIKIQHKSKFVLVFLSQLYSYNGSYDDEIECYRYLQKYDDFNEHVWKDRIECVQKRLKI
T1 sequence (Q8IHP6 1-923): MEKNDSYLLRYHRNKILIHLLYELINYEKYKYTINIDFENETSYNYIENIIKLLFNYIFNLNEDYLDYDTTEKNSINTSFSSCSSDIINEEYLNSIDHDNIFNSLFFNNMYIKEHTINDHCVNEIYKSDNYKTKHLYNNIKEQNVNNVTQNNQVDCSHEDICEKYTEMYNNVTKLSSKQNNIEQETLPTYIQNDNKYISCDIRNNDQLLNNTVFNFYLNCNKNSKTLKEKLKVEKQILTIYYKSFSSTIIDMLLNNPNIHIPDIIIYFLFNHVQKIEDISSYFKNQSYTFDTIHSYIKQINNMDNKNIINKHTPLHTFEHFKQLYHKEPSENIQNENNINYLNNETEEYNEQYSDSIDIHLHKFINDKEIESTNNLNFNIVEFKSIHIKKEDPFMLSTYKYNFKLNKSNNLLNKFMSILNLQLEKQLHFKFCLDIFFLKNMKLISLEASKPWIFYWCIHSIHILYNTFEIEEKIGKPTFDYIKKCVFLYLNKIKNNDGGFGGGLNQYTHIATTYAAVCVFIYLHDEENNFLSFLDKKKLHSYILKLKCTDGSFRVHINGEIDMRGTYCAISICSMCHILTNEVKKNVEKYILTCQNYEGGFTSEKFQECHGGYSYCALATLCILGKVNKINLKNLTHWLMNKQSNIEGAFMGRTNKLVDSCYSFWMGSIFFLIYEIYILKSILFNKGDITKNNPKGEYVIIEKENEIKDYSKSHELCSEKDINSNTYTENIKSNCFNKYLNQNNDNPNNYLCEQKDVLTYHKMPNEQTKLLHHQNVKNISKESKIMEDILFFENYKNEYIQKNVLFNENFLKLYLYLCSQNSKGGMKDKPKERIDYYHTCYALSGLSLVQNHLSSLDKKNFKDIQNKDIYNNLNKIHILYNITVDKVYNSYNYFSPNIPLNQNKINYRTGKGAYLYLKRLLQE

P. falciparum K1 = assay: P. falciparum ED50 determination, [3H]-hypoxanthine incorporation, strain K1; assay type: cell-based, Plasmodium falciparum; conditions: concentration decreasing hypoxanthine incorporation into parasites twofold, read-out: ED50 K1
From the text: as §1, §2, §3

[2] = Oral availability in mice, inhibitor concentration in plasma; assay type: in vivo
[3] = Liver microsome metabolism (rat); conditions: female, microsomes
Protocol: as §4

[4] = Oral availability in rats, inhibitor concentration in plasma; assay type: in vivo; conditions: rat
[5] = Plasmodium falciparum, 3D7, strain 3D7
[6] = Plasmodium falciparum, K1, strain K1

SMILES | IC50 (Rat FTase) [nM] | half-life at 0.71 µM ([1]; liver microsomes, Microsome t1/2, Mouse, mouse liver microsomes) [min] | EC50 (P. falciparum 3D7; [5]) [nM] | Selectivity (PfPFT) | inhibition at 0.005 µM (PfPFT) [%] | inhibition at 0.05 µM (PfPFT) [%] | EC50 (P. falciparum K1; [6]) [nM] | EC50 (P. falciparum 3D7; strain 3D7) [nM] | IC50 (PfPFT) [nM] | EC50 (P. falciparum K1; strain K1) [nM] | Oral Availability in Mice AUC ([2]; mouse, in vivo, po, 1 mg) [µM·min] | Oral Availability in Mice t1/2 ([2]; oral gavage, mice 1 mg, elimination half life) [min] | half-life at 0.71 µM ([1]; microsomes) [min] | half-life at 0.71 µM [3] [min] | half-life ([4]; plasma, 12.5 mg, oral gavage, rats, elimination half life, read-out: Oral Availability t1/2 (rats)) [min] | Tmax ([4]; plasma, oral administration to rats 12.5 mg) [min] | Cmax ([4]; plasma, oral gavage, rats 12.5 mg in 90% saline, 3% ethanol, 7% tween) [nM] | Tmax ([2]; mouse, in vivo, po) [min] | Cmax ([2]; mouse, in vivo, po, 1 mg) [nM] | Oral Availability AUC (^d, rats) ([4]; in vivo, po)
Cn1cnc(S(=O)(=O)N(CCN(Cc2cncn2C)c2ccc(C#N)cc2)Cc2ccc(-c3ccccc3)cc2)c1 [Compound 8ag, 1-Methyl-1H-imidazole-4-sulfonic acid biphenyl-4-ylmethyl-{2-[(4-cyano-phenyl)-(3-methyl-3H-imidazol-4-ylmethyl)-amino]-ethyl}-amide] | 880 | < 4 | 700 | 3.7 | 10 | 19 | 2500 |  |  |  |  |  |  |  |  |  |  |  |  | 
Cn1cnc(S(=O)(=O)N(CCN(Cc2cncn2C)c2ccc(Br)cc2)Cc2ccccc2)c1 [Compound 8b, 1-Methyl-1H-imidazole-4-sulfonic acid benzyl-{2-[(4-bromo-phenyl)-(3-methyl-3H-imidazol-4-ylmethyl)-amino]-ethyl}-amide] | 290 |  | 675 |  | 86 | 95 | 3200 |  |  |  |  |  |  |  |  |  |  |  |  | 
Cc1ccccc1CN(CCN(Cc1cncn1C)c1ccc(-c2ccccc2)cc1)S(=O)(=O)c1cn(C)cn1 [Compound 8c, 1-Methyl-1H-imidazole-4-sulfonic acid {2-[biphenyl-4-yl-(3-methyl-3H-imidazol-4-ylmethyl)-amino]-ethyl}-(2-methyl-benzyl)-amide] | > 1000 |  | 2500 |  | 49 | 85 | 2600 | 2600 | 8 | 2500 |  |  |  |  |  |  |  |  |  | 
Cn1cnc(S(=O)(=O)N(CCN(Cc2cncn2C)c2ccc(C#N)cc2)Cc2ccccc2)c1 [Compound 8d, 1-Methyl-1H-imidazole-4-sulfonic acid benzyl-{2-[(4-cyano-phenyl)-(3-methyl-3H-imidazol-4-ylmethyl)-amino]-ethyl}-amide] | 25 |  | 349 |  | 86 | 98 | 375 |  |  | 367 | 112.0 | 95.9 | 9 | 18 | 96 | 30 | 740 |  |  | 
Cn1cncc1CN(CCN(Cc1ccccc1)S(=O)(=O)c1ccccc1)c1ccc(C#N)cc1 [Compound 8e, N-Benzyl-N-{2-[(4-cyano-phenyl)-(3-methyl-3H-imidazol-4-ylmethyl)-amino]-ethyl}-benzenesulfonamide] | 13 |  | 2500 | 1.5 | 18 | 69 | 2250 |  |  |  |  |  |  |  |  |  |  |  |  | 
Cn1cncc1CN(CCN(Cc1ccccc1)S(=O)(=O)c1ccccn1)c1ccc(C#N)cc1 [Compound 8g, Pyridine-2-sulfonic acid benzyl-{2-[(4-cyano-phenyl)-(3-methyl-3H-imidazol-4-ylmethyl)-amino]-ethyl}-amide] |  |  | 570 |  | 64 | 95 | 2300 |  | 2.8 |  |  |  |  |  |  |  |  | 30 |  | 
CN(C)c1cccc2c(S(=O)(=O)N(CCN(Cc3cncn3C)c3ccc(C#N)cc3)Cc3ccccc3)cccc12 [Compound 8i, 5-Dimethylamino-naphthalene-1-sulfonic acid benzyl-{2-[(4-cyano-phenyl)-(3-methyl-3H-imidazol-4-ylmethyl)-amino]-ethyl}-amide] | 180 |  | 300 | 3.3 | 6 | 29 | 388 |  |  |  |  |  |  |  |  |  |  |  |  | 
Cn1cnc(S(=O)(=O)N(CCN(Cc2cncn2C)c2ccc(C#N)cc2)CC(=O)NC(C)(C)C)c1 [Compound 8o, N-tert-Butyl-2-[{2-[(4-cyano-phenyl)-(3-methyl-3H-imidazol-4-ylmethyl)-amino]-ethyl}-(1-methyl-1H-imidazole-4-sulfonyl)-amino]-acetamide] | > 1000 |  | 2800 |  | 4 | 6 | > 5000 |  | > 1000 |  |  |  |  |  |  |  |  |  |  | 
Cn1cnc(S(=O)(=O)N(CCN(Cc2cncn2C)c2ccc(C#N)cc2)CC2CCN(C(=O)OC(C)(C)C)CC2)c1 [Compound 8v, 4-{[{2-[(4-Cyano-phenyl)-(3-methyl-3H-imidazol-4-ylmethyl)-amino]-ethyl}-(1-methyl-1H-imidazole-4-sulfonyl)-amino]-methyl}-piperidine-1-carboxylic acid tert-butyl ester] |  |  | 88 |  | 81 | 96 | 54 |  | 1.2 |  |  |  |  |  |  |  |  | ≤ 40 |  | 
Cc1ccccc1CN(CCN(Cc1cncn1C)c1ccc(C#N)cc1)S(=O)(=O)c1cn(C)cn1 [Compound 8x, 1-Methyl-1H-imidazole-4-sulfonic acid {2-[(4-cyano-phenyl)-(3-methyl-3H-imidazol-4-ylmethyl)-amino]-ethyl}-(2-methyl-benzyl)-amide] | 15.5 |  | 93 |  | 95 | 99 | 150 |  |  |  |  |  |  |  |  |  |  | 40 | 1050 | 103^d μM · min
